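Five concentrations, 48 hours, 96-well plates. GI50 = concentration required for 50% inhibition of growth.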 Active and inactive are the calls of the source. No stated cut-off is given here; in the data, active = GI50 up to about 1.1 µM and inactive = higher.
Experiments:
Assay in all cases: NCI-60 cell line screen, 48 h
RXF 393 = test system: RXF 393
NCI-H226 = test system: NCI-H226
SK-MEL-2 = test system: SK-MEL-2
HOP-62 = test system: HOP-62
OVCAR-8 = test system: OVCAR-8
OVCAR-4 = test system: OVCAR-4
ACHN = test system: ACHN
Malme-3M = test system: Malme-3M
M14 = test system: M14
SF-539 = test system: SF-539
UACC-257 = test system: UACC-257
OVCAR-5 = test system: OVCAR-5
HL-60 = test system: HL-60
TK-10 = test system: TK-10
NCI-H460 = test system: NCI-H460
SF-295 = test system: SF-295
HOP-92 = test system: HOP-92
SNB-75 = test system: SNB-75
U-251 = test system: U-251

Measured: GI50

C=C(Br)C(C)(Cl)CCC(Br)C(C)(C)Br (centres undefined)
inactive: RXF 393 22.4 µM | NCI-H226 > 100 µM | SK-MEL-2 29.2 µM | HOP-62 > 100 µM | OVCAR-8 > 100 µM | OVCAR-4 > 100 µM | ACHN > 100 µM | Malme-3M 69 µM | M14 50.4 µM | SF-539 > 100 µM | UACC-257 78.7 µM | OVCAR-5 37.2 µM | HL-60 19.9 µM | TK-10 > 100 µM | NCI-H460 47.5 µM | SF-295 47.2 µM | HOP-92 32.7 µM | SNB-75 46 µM | U-251 88.9 µM

N#C/C(=C\c1ccc(O)c(O)c1)c1c(C#N)c(N)nn1-c1ccccc1
inactive: SK-MEL-2 13 µM | HOP-62 10 µM | OVCAR-8 5.82 µM | OVCAR-4 17.2 µM | ACHN 8 µM | Malme-3M 4.95 µM | M14 9.29 µM | SF-539 6.64 µM | UACC-257 15.5 µM | OVCAR-5 33 µM | HL-60 7.85 µM | TK-10 21.8 µM | NCI-H460 10.8 µM | SF-295 15.7 µM | HOP-92 8.71 µM | SNB-75 13.3 µM | U-251 5.36 µM

CCOC(=N)/C(=C1\OC(=N)C(c2ccc(Cl)cc2)=C1O)c1ccc(Cl)cc1
inactive: RXF 393 13.8 µM | NCI-H226 20.5 µM | HOP-62 22.5 µM | OVCAR-8 15.4 µM | OVCAR-4 11.8 µM | ACHN 21.3 µM | Malme-3M 14.3 µM | M14 17.4 µM | SF-539 16.5 µM | UACC-257 17.2 µM | OVCAR-5 19.4 µM | HL-60 17.3 µM | TK-10 28.1 µM | NCI-H460 21.6 µM | SF-295 25.3 µM | HOP-92 18.5 µM | SNB-75 18.8 µM | U-251 16.8 µM

CC12O[C@H](c3ccccc3)[C@H](c3ccccc3)N1C(=O)C1(C(=O)OCc3ccccc3)CC12 (some centres undefined)
inactive: NCI-H226 36 µM | SK-MEL-2 33.3 µM | HOP-62 > 100 µM | OVCAR-8 92.3 µM | OVCAR-4 79.1 µM | ACHN 60.3 µM | Malme-3M > 100 µM | M14 64.7 µM | UACC-257 59.8 µM | OVCAR-5 > 100 µM | HL-60 32.4 µM | NCI-H460 > 100 µM | SF-295 > 100 µM | HOP-92 23.5 µM | SNB-75 > 100 µM

O=C(N/C(=C\c1ccc(/C=C(\NC(=O)c2ccccc2)c2nc3c(O)nc(S)nc3[nH]2)cc1)c1nc2c(O)nc(S)nc2[nH]1)c1ccccc1
inactive: RXF 393 38.6 µM | SK-MEL-2 8.71 µM | HOP-62 > 100 µM | OVCAR-8 74.6 µM | OVCAR-4 25.9 µM | ACHN 95.7 µM | Malme-3M > 100 µM | M14 > 100 µM | SF-539 61.9 µM | UACC-257 > 100 µM | OVCAR-5 > 100 µM | TK-10 > 100 µM | NCI-H460 > 100 µM | SF-295 > 100 µM | HOP-92 > 100 µM | SNB-75 26.4 µM | U-251 > 100 µM

COc1cc(C(C)O)c[n+](CCC2CNc3ccccc32)c1 (centres undefined)
inactive: NCI-H226 73.1 µM | SK-MEL-2 > 100 µM | HOP-62 > 100 µM | OVCAR-8 > 100 µM | OVCAR-4 > 100 µM | ACHN > 100 µM | Malme-3M > 100 µM | M14 > 100 µM | SF-539 > 100 µM | UACC-257 > 100 µM | HL-60 > 100 µM | NCI-H460 > 100 µM | SF-295 > 100 µM | SNB-75 > 100 µM | U-251 > 100 µM

Cc1ccc(S(=O)(=O)OCC23CCC(C2)C2CC23)cc1 (centres undefined)
inactive: NCI-H226 > 100 µM | HOP-62 > 100 µM | OVCAR-8 > 100 µM | OVCAR-4 > 100 µM | ACHN > 100 µM | Malme-3M > 100 µM | M14 > 100 µM | UACC-257 52.1 µM | OVCAR-5 > 100 µM | HL-60 31.6 µM | TK-10 > 100 µM | NCI-H460 > 100 µM | SF-295 > 100 µM | HOP-92 26 µM | U-251 > 100 µM

Cc1ccc(NC(=O)CCc2nc(N)nc(N)c2-c2ccccc2)cc1C
inactive: NCI-H226 > 100 µM | SK-MEL-2 > 100 µM | HOP-62 > 100 µM | OVCAR-8 > 100 µM | OVCAR-4 > 100 µM | ACHN > 100 µM | Malme-3M > 100 µM | M14 > 100 µM | SF-539 > 100 µM | UACC-257 > 100 µM | OVCAR-5 > 100 µM | HL-60 > 100 µM | TK-10 > 100 µM | NCI-H460 > 100 µM | SF-295 > 100 µM | HOP-92 > 100 µM | SNB-75 58.7 µM | U-251 > 100 µM

CC(C)COC1Sc2ccccc2S1
inactive: RXF 393 18.2 µM | HOP-62 21.4 µM | OVCAR-8 29.1 µM | OVCAR-4 23.1 µM | ACHN 15.7 µM | Malme-3M 23.6 µM | M14 20.6 µM | TK-10 21.5 µM | NCI-H460 7.85 µM | SF-295 16.4 µM | HOP-92 14.5 µM | SNB-75 1.32 µM | U-251 18.7 µM

CC1(C)OC2CC3COC(=O)C3CC2O1 (centres undefined)
inactive: NCI-H226 > 100 µM | SK-MEL-2 > 100 µM | HOP-62 > 100 µM | OVCAR-8 > 100 µM | OVCAR-4 > 100 µM | ACHN > 100 µM | Malme-3M > 100 µM | M14 > 100 µM | SF-539 > 100 µM | UACC-257 > 100 µM | OVCAR-5 > 100 µM | HL-60 > 100 µM | TK-10 > 100 µM | NCI-H460 > 100 µM | SF-295 > 100 µM | HOP-92 > 100 µM | SNB-75 > 100 µM | U-251 > 100 µM

CC(=O)OC(COc1ccc2c(c1)[n+]([O-])nc(N)[n+]2[O-])CN1CCCCC1 (centres undefined)
inactive: RXF 393 16.5 µM | NCI-H226 15.3 µM | SK-MEL-2 10.2 µM | OVCAR-8 13.8 µM | OVCAR-4 30.7 µM | ACHN 6.79 µM | Malme-3M 9.79 µM | M14 16.2 µM | SF-539 15.2 µM | UACC-257 12.5 µM | OVCAR-5 20.8 µM | HL-60 5.12 µM | TK-10 23.5 µM | NCI-H460 3.97 µM | HOP-92 17.4 µM | SNB-75 18.2 µM | U-251 13.5 µM

Nc1ncnc2c1ncn2[C@]1(CO)C=C(CO)C(O)C1O (some centres undefined)
inactive: RXF 393 > 100 µM | NCI-H226 > 100 µM | SK-MEL-2 > 100 µM | HOP-62 52.5 µM | OVCAR-4 > 100 µM | ACHN > 100 µM | Malme-3M > 100 µM | M14 > 100 µM | UACC-257 > 100 µM | OVCAR-5 80.4 µM | HL-60 > 100 µM | TK-10 > 100 µM | NCI-H460 > 100 µM | SF-295 > 100 µM | HOP-92 > 100 µM | SNB-75 > 100 µM | U-251 > 100 µM

Source: ChEMBL document CHEMBL1201862, “PubChem BioAssay data set” (2004)
